Measured values from US20220039390A1, “USE OF […] FOR C[…] VEGETATION IN BETA VULGARIS GROWING AREAS” (KWS SAAT SE & Co. KGaA, priority 2018, published 2022).

How the values were obtained:
[1] = acid form, 25° C.; cited from earlier work
[2] = tested on: sugar beet (Beta vulgaris); assay: Glyphosate selection of mutagenized (EMS/ENU) M2 sugar beet plants, field spray then greenhouse treatment; format: in vivo; conditions: 600 g/ha glyphosate acid equivalent
Description: 6 kg seeds of sugar beet elite line T807 (3BT1760, MO population) were mutagenized with 0.5% EMS and 0.3% and 0.5%, respectively ENU, and subsequently drilled for steck production. Stecks were replanted for seed production occupying an area of 5.8 ha. M1 population sizes were 75,000 seed producing plants for EMS and 19,000 plants for ENU mutagenized seeds. The following M2 seed amounts (values given for purified seed) has been obtained: 240 kg for 0.5% EMS (idents A and B), 548 kg for 0.3% ENU (idents C and D), and 256 kg 0.5% ENU (idents E and F).
176 kg of idents A and B and 75 kg of idents C, D, E and F were sown on an approximately 15 ha spanning field site. Approximately 1 month after sowing, the entire field was sprayed with 0.88 I/ha ROUNDUP® MAX (680 g/kg glyphosate acid equivalent). Approximately 6 weeks later, plants surviving the glyphosate treatment were collected in the field, transplanted to pots and further cultivated in the greenhouses. Surviving plants were treated with 600 g/ha glyphosate acid equivalent about 2 months later. 172 plants survived that treatment in a very healthy stage without any signs of herbicide damage.
In order to identify the causative mutation behind the observed herbicide resistance sequencing analyses have been performed. […]

**Q.** For O=C(O)CNCP(=O)(O)O [glyphosate, N-phosphonomethylglycine], which solubility in water [1] is on record?
**A.** 1.16 % by weight

**Q.** What about the “resistance conferred by heterozygous P179S mutation in BvEPSPS” value ([2]; approx. 50% of standard field treatment level, based on screening and selection) of the same compound?
**A.** complete resistance

**Q.** What about the “plants that survived treatment in a very healthy stage without any signs of herbicide damage” value ([2]; potted greenhouse plants that had survived the ROUNDUP MAX field spray) of the same compound?
**A.** 172 plants
